For assay [1], the target named is T1, RgCBM40 (Mediterraneibacter gnavus (Ruminococcus gnavus), UniProt A7B557). Nature of the assay: STD NMR of sialoglycans with RgCBM40 WT. More on the design: species or system Ruminococcus gnavus ATCC 29149. Particulars: 1 mM sialoglycan, 50 μM RgCBM40 WT, 288 K; 'exception' = monosaccharides for which binding was not detected. How it is done: ^1H and ^13C resonance assignment for all the sugars was performed on the bases of 1D ^1H, 2D DQF-COSY, TOCSY, HSQC and NOESY experiments run on the free ligands in unbuffered D2O, pH 7.0. For STD NMR experiments, all the samples consisted of 1 mM sialoglycans and 50 μM RgCBM40 (WT or I95A mutant) in D2O buffer solution of 10 mM Tris-d11 pH 7.8 and 100 mM NaCl (ligand: protein ratio 20:1). An STD pulse sequence that included 2.5 ms and 5 ms trim pulses and a 3 ms spoil gradient was used. Saturation was achieved applying a train of 50 ms Gaussian pulses (0.40 mW) on the f2 channel, at 0.60 p.p.m. (on-resonance experiments) and 40 p.p.m. (off-resonance experiments). The broad protein signals were removed using a 40 ms spinlock (T1ρ) filter. All the experiments were recorded at ^1H frequency of 800.23 MHz on a Bruker Avance III spectrometer equipped with a 5 mm probe TXI 800 MHz H-C/N-D-05 Z BTO, at 288 K. For all the sialoglycans in the presence of RgCBM40, an STD experiment with a saturation time of 2 s and a relaxation delay of 5 s was performed, as a first test for binding. For the confirmed binders, the STD NMR experiments were carried out at different saturation times (0.5, 1, 2, 3, 4 and 5 s) with 1 K scans and relaxation delay of 5 s, in order to obtain the binding epitope mapping. The resulting build-up curves for each proton were fitted mathematically to a mono-exponential equation (y = a×[1-exp(b×x)]), from which the initial slopes (a×b) were obtained. For each ligand, the binding epitope mapping was obtained by dividing the initial slopes by the one of the H7 proton of the corresponding sialic acid ring, to which an arbitrary value of 100% was assigned. This normalisation of the STD values allows the comparison across all the sialoglycans.

The target in assay [2] is T1, RgCBM40. Briefly: ITC of sialoglycans binding to RgCBM40 wild type. The arrangement: species or system Ruminococcus gnavus ATCC 29149. Particulars: RgCBM40 WT. How it is done: (§1) Isothermal titration calorimetry (ITC) experiments were performed using the PEAQ-ITC system (Malvern, Malvern, UK) with a cell volume of 200 µl. Prior to titration protein samples were exhaustively dialysed into PBS. The ligand was dissolved in the dialysis buffer. The cell protein concentration was 115 µM (except for mutant I95A where it was 173 µM and the wild-type interaction with 6′SL where it was 230 µM) and the syringe ligand concentration was 10 mM (25 mM for Neu5Ac). Controls with titrant (sugar) injected into buffer only were subtracted from the data. Analysis was performed using Malvern software, using a single-binding site model. The stoichiometry of binding sites was set to 1.0 as this was evident from the crystal structure. Quantitative and most qualitative experiments were carried out in triplicate.

The next assay concerns the target T2, RgCBM40 R204A (Mediterraneibacter gnavus (Ruminococcus gnavus), UniProt A7B557, R204A).
T2 sequence (A7B557 50-237 R204A): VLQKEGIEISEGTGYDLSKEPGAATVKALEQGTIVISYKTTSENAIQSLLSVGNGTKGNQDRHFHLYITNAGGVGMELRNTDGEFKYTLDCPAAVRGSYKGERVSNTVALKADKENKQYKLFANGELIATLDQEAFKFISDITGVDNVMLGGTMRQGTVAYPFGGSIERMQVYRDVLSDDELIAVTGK
Nature of the assay: ITC of sialoglycans binding to RgCBM40 mutant R204A. More on the design: species or system Ruminococcus gnavus ATCC 29149. The procedure:
(§2) Site directed mutagenesis of RgGH33 to introduce the D282A mutation in the active site was carried out using the QuikChange kit, following the manufacturer’s instructions, Agilent (Santa Clara, CA, USA). Site-directed mutants of RgCBM40; I95A, Y116A, E126A, R128A, R204A and double mutant R128A/R204A, were obtained from NZyTech (Lisbon, Portugal). The primers are listed in Supplementary Table 4. The integrity of the RgGH33 and RgCBM40 mutants was checked by circular dichroism (CD).
as §1

The target of the next assay is T3, RgCBM40 R128A/R204A (Mediterraneibacter gnavus (Ruminococcus gnavus), UniProt A7B557, R128A/R204A).
T3 sequence (A7B557 50-237 R128A/R204A): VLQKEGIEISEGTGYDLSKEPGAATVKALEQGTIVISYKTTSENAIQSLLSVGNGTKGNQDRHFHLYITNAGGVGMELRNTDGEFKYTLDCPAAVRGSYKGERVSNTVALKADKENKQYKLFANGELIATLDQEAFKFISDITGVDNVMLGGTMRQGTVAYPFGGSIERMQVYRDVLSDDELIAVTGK
Nature of the assay: ITC of sialoglycans binding to RgCBM40 double mutant R128A/R204A. The arrangement: species or system Ruminococcus gnavus ATCC 29149. How it is done:
as §2, §1

The next assay deals with T4, RgCBM40 Y210A (Mediterraneibacter gnavus (Ruminococcus gnavus), UniProt A7B557, Y210A).
T4 sequence (A7B557 50-237 Y210A): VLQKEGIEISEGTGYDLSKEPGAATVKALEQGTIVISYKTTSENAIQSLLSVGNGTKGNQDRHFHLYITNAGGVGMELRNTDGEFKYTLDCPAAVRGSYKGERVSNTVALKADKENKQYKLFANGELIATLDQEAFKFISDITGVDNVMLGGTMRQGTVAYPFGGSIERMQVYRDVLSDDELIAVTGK
Briefly: ITC of sialoglycans binding to RgCBM40 mutant Y210A. More on the design: species or system Ruminococcus gnavus ATCC 29149. How it is done:
as §1

In the next assay the target is T5, RgCBM40 E126A (Mediterraneibacter gnavus (Ruminococcus gnavus), UniProt A7B557, E126A).
T5 sequence (A7B557 50-237 E126A): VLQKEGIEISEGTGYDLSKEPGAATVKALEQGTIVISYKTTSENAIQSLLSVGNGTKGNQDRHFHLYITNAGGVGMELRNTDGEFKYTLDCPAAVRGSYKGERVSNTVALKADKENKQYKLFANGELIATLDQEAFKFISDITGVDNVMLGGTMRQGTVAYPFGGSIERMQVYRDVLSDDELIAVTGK
Nature of the assay: ITC of sialoglycans binding to RgCBM40 mutant E126A. More on the design: species or system Ruminococcus gnavus ATCC 29149. How it is done:
as §2, §1

In another assay the target is T6, RgCBM40 R128A (Mediterraneibacter gnavus (Ruminococcus gnavus), UniProt A7B557, R128A).
T6 sequence (A7B557 50-237 R128A): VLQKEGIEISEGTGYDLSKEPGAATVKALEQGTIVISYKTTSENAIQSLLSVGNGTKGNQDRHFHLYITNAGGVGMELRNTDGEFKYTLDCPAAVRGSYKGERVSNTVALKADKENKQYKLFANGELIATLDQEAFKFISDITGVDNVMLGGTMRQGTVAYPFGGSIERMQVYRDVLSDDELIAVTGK
Nature of the assay: ITC of sialoglycans binding to RgCBM40 mutant R128A. The arrangement: species or system Ruminococcus gnavus ATCC 29149. How it is done:
as §2, §1

Another assay has as its target T7, RgCBM40 I95A (Mediterraneibacter gnavus (Ruminococcus gnavus), UniProt A7B557, I95A).
T7 sequence (A7B557 50-237 I95A): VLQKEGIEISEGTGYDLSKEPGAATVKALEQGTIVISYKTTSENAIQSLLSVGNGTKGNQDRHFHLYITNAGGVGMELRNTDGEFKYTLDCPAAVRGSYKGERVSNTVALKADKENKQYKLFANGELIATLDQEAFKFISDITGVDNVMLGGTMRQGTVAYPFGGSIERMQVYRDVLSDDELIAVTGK
Nature of the assay: ITC of sialoglycans binding to RgCBM40 mutant I95A. The arrangement: species or system Ruminococcus gnavus ATCC 29149. Particulars: 173 µM protein, syringe 10 mM sugar (25 mM for Neu5Ac), * = estimate only. How it is done: as §2, §1

Another assay concerns the target T8, RgCBM40 Y116A (Mediterraneibacter gnavus (Ruminococcus gnavus), UniProt A7B557, Y116A).
T8 sequence (A7B557 50-237 Y116A): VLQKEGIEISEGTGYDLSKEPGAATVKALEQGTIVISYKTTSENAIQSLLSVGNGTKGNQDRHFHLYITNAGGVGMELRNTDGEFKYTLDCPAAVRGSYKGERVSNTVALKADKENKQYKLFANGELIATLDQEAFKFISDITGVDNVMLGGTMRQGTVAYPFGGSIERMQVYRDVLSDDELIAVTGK
Briefly: ITC of sialoglycans binding to RgCBM40 mutant Y116A. More on the design: species or system Ruminococcus gnavus ATCC 29149. How it is done:
as §2, §1

In assay [3] the test system is RgCBM40 binding to LS174T MUC2. Briefly: ELISA of RgCBM40 binding to LS174T MUC2 in competition with sugars. More on the design: species or system Ruminococcus gnavus ATCC 29149. To be noted: RgCBM40 preincubated with 1 mM free sugar overnight at 4 °C; immobilised LS174T MUC2; A450. How it is done: RgCBM40 binding to purified mucins was tested by ELISA. Mucins (100 μl of 10 μg ml^−1) were immobilised onto a high binding 96 well plate (Greiner, Stonehouse, UK) overnight at 4 °C. All subsequent steps were carried out for 1 h at room temperature. The plates were blocked with 3% (w/v) BSA, incubated with RgCBM40 (500 μg ml^−1), followed by an incubation with 1:5000 anti-RgNanH (raised in rabbit, Biogenes) then with 1:5000 anti-rabbit secondary antibody (raised in donkey) conjugated to peroxidase (GE Healthcare). Between each step, the plate was washed with 3 × 300 μl of PBS containing 0.05% (v/v) Tween 20 (PBST). Prior to detection, an additional wash step and 30 s incubation with PBST was carried out. Binding was detected using tetramethylbenzidine (TMB) visualisation solution (Biolegend, San Diego, CA, USA) which was incubated for 15 min. The reaction was stopped by addition of 2 M H2SO4 and absorbance measured at 450 nm using a plate-reader (Bench Marl Plus, Biorad), subtracting background readings at 570 nm. Negative controls including no RgCBM40 (subtracted from A450 value), no primary or no secondary antibody were carried out in parallel. For comparison between plates, values were normalised to the reading for LS174T MUC2 which was arbitrarily set at 100%. For enzymatic treatment of the mucin, LS174T MUC2 (2 mg ml^−1) was incubated with sialidases (2 µg ml^−1) overnight at 4 °C on a rotary wheel prior to immobilisation on the plate. For chemical treatment of mucin, LS174T MUC2 was incubated with 0.1 M trifluoroacetic acid (TFA) at 80 °C for 1 h, dialysed against ammonium bicarbonate (50 mM), lyophilised and redissolved in H2O. For the competition assays, RgCBM40 was incubated with 1 mM of free sugar overnight at 4 °C on a rotary wheel prior to addition to the ELISA plate as above. Experiments were carried out in triplicate.
In general terms: An ELISA detects its analyte on a solid surface through an enzyme-linked reagent.

Assay [4] concerns the target T9, LS174T MUC2 treated with trifluoroacetic acid or a sialidase to remove sialic acid (human (endogenous in LS174T), UniProt Q02817 21-5289, O-glycans with sialic acid removed by TFA or by a sialidase from C. perfringens, S. typhimurium, A. muciniphila or R. gnavus; reduced with dithiothreitol and alkylated with iodoacetamide).
T9 construct: MUC2, gel-forming mucin secreted by the human LS174T cell line; also called MUC2 treated chemically (TFA) or enzymatically with a sialidase (Cp, St, Am/Ak, Rg)
Briefly: ELISA; mucins (100 µl of 10 µg ml^-1) immobilised on a 96 well plate, RgCBM40 at 500 µg ml^-1 for 1 h at room temperature, detected with rabbit anti-RgNanH and a peroxidase-conjugated secondary antibody, A450; values normalised to LS174T MUC2 = 100%. To be noted: both partners purified.

Values joined by “and” are separate entries in the source; they are usually repeats but may differ in a detail not shown here. Equal entries are not always repeated. “Also recorded” adds a separate entry of the source. Some results are limits rather than exact numbers.

This is an account of results in article PMC5736709, “Unravelling the specificity and mechanism of sialic acid recognition by the gut symbiont Ruminococcus gnavus” (Nature Communications, 2017).

A word on the Kd: it is the concentration at which binding is half-saturated.

As for `CC(=O)N[C@H]1[C@H]([C@H](O)[C@H](O)CO)OC(O)(C(=O)O)C[C@@H]1O` (stereo partly drawn) [Neu5Ac, N-acetylneuraminic acid], the “Binding to RgCBM40 detected by STD NMR” value on RgCBM40 [1] is reported as “exception; also recorded: no interaction was observed”. Moreover, the Kd at RgCBM40 [2] (Kd, ITC in PBS, 115-230 μM protein in cell, syringe 10 mM sugar (25 mM for Neu5Ac), * = estimate only, Kd too high to determine) is ~21 mM and ~20 mM; on RgCBM40 R204A (ITC) it was greater than 25 mM; at RgCBM40 R128A/R204A (ITC) it was greater than 25 mM; on RgCBM40 Y210A (ITC) it was greater than 25 mM; at RgCBM40 E126A (ITC), greater than 25 mM; at RgCBM40 R128A (ITC), greater than 25 mM. Besides, the results for the Kd at RgCBM40 I95A and at RgCBM40 Y116A (ITC) were roughly 23 mM and greater than 25 mM, respectively. For the same molecule, the “Binding to RgCBM40 (in words)” value at RgCBM40 [2] is “weak binding”. Besides, the “Binding by ITC (in words)” value at RgCBM40 R204A, on RgCBM40 R128A/R204A, on RgCBM40 Y210A, on RgCBM40 E126A, at RgCBM40 R128A and on RgCBM40 Y116A was “abolished” in each case. Further, the “Effect of free sugar on adherence of RgCBM40 to MUC2” value in [3] is “no effect”.

B1: RgCBM40 (residues 50–237 of RgNanH), preparation for all other protein assays (ELISA) (domain or fragment, Ruminococcus gnavus ATCC 29149, UniProt A7B557 50-237, looked up)
chain: VLQKEGIEISEGTGYDLSKEPGAATVKALEQGTIVISYKTTSENAIQSLLSVGNGTKGNQDRHFHLYITNAGGVGMELRNTDGEFKYTLDCPAAVRGSYKGERVSNTVALKADKENKQYKLFANGELIATLDQEAFKFISDITGVDNVMLGGTMRQGTVAYPFGGSIERMQVYRDVLSDDELIAVTGK
notes: in the ELISA it was detected with anti-RgNanH antiserum
As for B1, the binding result in assay [4] is recorded as “binds”.
